From US20090270394A1, “CYCLYLAMINE DERIVATIVES AS CALCIUM CHANNEL BLOCKERS” (priority 2008, published 2009)

Biological target: T1, Human Cav2.2 channels (Homo sapiens, UniProt Q00975)
T1 construct: expressed in transfected cells
Test: Fluorescent assay for Cav2.2 channels using potassium depolarization to initiate channel opening
Assay type: cell-based
Conditions: for inhibition at 10 µM: 10 μM compound, read-out: Cav 2.2 Activity % Inh at 10 μM; for inhibition at 30 µM: 30 μM compound, read-out: Cav 2.2 Activity % Inh at 30 μM; for IC50: 30 mM K (block of open and inactivated channels), read-out: Cav 2.2 Activity IC50 at 30 mM K
Source text: Human Cav2.2 channels were stably expressed in HEK293 cells along with alpha2-delta and beta subunits of voltage-gated calcium channels. An inwardly rectifying potassium channel (Kir2.3) was also expressed in these cells to allow more precise control of the cell membrane potential by extracellular potassium concentration. At low bath potassium concentration, the membrane potential is relatively negative, and is depolarized as the bath potassium concentration is raised. In this way, the bath potassium concentration can be used to regulate the voltage-dependent conformations of the channels. […] After the incubation period, Cav2.2 channel opening is triggered by addition of higher concentration of potassium (70 mM final concentration) to further depolarize the cell. The degree of state-dependent block can be estimated from the inhibitory potency of compounds after incubation in different potassium concentrations.
Calcium influx through Cav2.2 channels is determined using a calcium sensitive fluorescent dye in combination with a fluorescent plate reader. Fluorescent changes were measured with either a VIPR (Aurora Instruments) or FLIPR (Molecular Devices) plate reader.
• 1. Seed cells in Poly-D-Lysine Coated 96 or 384-well plate and keep in a 37° C.-10% CO2 incubator overnight • 2. […] Incubate in the dark at 25° C. for 60-70 min • 5. Remove dye, wash cells with 0.1 mL (96-well plate) or 0.06 mL (384-well plate) of 4, 12, 25, or 30 mM Potassium Pre-polarization Buffer (PPB) • 6. […] Incubate in the dark at 25° C. for 30 min • 8. Read cell plate on VIPR instrument, Excitation=480 nm, Emission=535 nm • 9. With VIPR continuously reading, add 0.1 mL (96-well plate) or 0.03 mL (384-well plate) of Depolarization Buffer (DB), which is 2× the final assay concentration, to the cell plate.

T1 sequence (Q00975 whole entry): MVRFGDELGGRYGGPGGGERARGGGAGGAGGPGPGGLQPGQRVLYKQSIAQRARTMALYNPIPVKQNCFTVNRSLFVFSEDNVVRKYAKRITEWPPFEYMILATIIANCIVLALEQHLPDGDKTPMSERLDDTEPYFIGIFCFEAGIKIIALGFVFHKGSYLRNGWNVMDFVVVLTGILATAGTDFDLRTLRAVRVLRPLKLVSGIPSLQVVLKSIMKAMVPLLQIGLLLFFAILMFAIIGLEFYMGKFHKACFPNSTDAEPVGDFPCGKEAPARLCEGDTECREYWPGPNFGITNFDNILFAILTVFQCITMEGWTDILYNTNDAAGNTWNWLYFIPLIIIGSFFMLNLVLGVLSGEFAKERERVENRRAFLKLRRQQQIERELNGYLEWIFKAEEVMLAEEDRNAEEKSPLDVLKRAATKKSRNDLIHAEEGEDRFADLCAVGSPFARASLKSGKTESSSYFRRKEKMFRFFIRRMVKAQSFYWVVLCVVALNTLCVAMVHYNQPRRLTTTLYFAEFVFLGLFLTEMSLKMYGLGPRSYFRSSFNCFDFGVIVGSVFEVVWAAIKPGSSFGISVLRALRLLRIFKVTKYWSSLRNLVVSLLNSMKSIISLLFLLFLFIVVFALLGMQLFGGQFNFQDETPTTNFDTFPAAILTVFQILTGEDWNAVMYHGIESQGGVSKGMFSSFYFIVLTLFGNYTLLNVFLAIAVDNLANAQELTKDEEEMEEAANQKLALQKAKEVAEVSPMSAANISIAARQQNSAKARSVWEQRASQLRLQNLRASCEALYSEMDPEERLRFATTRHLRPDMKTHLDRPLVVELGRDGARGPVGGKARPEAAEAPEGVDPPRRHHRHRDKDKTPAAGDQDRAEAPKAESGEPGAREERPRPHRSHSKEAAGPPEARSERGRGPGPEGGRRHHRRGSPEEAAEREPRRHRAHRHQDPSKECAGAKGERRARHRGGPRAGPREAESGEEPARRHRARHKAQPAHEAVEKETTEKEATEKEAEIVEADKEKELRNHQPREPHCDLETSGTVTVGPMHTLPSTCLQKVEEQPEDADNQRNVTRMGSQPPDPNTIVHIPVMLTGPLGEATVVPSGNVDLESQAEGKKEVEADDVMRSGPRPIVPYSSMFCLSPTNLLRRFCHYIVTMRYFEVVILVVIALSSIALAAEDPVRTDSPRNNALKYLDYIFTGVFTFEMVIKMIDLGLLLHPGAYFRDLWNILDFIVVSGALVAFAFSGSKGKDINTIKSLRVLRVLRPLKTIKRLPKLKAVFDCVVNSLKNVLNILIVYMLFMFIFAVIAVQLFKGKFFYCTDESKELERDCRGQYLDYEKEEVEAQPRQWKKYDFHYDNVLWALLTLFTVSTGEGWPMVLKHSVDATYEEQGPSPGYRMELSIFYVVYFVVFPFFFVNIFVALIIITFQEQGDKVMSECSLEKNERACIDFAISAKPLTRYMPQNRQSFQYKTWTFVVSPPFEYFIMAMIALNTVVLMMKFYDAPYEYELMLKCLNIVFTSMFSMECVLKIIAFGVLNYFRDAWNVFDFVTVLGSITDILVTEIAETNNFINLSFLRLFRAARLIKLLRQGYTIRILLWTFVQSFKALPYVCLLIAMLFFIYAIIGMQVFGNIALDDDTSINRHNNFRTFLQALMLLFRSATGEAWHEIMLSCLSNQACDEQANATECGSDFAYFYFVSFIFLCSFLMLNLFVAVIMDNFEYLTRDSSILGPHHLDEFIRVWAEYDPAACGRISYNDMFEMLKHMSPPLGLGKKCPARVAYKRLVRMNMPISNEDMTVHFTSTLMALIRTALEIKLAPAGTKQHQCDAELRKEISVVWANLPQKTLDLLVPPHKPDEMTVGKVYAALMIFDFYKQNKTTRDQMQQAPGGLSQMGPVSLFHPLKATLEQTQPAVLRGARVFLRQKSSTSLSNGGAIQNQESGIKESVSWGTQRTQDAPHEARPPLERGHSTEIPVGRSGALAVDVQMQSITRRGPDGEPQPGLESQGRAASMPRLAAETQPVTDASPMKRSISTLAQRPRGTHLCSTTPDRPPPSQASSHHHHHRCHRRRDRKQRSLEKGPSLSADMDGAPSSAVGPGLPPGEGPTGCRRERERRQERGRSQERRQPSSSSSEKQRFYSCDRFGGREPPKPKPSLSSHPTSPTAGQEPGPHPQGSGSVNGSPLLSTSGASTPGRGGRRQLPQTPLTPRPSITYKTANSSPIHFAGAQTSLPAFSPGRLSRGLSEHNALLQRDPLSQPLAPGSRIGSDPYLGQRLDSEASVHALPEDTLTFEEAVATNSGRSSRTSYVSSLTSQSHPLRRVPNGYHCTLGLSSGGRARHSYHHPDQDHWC
T1 sequence (P54289 25-1103 partner): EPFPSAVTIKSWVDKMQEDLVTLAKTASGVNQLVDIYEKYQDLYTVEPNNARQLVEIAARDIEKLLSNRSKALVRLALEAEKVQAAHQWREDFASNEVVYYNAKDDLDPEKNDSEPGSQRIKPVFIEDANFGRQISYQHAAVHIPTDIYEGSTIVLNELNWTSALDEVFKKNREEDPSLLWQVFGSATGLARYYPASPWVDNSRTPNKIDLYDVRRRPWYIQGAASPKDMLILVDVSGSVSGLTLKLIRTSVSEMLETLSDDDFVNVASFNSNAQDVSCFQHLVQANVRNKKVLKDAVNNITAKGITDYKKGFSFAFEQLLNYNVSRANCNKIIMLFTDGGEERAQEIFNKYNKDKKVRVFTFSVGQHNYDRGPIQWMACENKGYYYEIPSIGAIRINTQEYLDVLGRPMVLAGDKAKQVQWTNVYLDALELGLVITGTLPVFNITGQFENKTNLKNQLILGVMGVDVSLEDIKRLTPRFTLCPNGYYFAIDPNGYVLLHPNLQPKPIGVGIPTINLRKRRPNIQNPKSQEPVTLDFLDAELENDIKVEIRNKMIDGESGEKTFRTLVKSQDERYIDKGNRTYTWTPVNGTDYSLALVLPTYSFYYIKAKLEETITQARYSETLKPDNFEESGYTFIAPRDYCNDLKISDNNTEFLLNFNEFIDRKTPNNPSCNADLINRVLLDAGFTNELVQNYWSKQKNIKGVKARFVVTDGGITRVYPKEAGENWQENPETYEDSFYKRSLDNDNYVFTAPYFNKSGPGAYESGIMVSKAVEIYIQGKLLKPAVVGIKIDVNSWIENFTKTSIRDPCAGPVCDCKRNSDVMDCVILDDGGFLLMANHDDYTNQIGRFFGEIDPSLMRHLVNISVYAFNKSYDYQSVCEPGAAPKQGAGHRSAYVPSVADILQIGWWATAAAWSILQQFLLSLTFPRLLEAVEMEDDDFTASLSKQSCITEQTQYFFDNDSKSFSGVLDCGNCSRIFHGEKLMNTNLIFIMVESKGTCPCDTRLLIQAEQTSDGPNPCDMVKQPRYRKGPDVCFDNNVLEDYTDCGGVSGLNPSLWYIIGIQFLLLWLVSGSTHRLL
T1 sequence (P54284 whole entry partner): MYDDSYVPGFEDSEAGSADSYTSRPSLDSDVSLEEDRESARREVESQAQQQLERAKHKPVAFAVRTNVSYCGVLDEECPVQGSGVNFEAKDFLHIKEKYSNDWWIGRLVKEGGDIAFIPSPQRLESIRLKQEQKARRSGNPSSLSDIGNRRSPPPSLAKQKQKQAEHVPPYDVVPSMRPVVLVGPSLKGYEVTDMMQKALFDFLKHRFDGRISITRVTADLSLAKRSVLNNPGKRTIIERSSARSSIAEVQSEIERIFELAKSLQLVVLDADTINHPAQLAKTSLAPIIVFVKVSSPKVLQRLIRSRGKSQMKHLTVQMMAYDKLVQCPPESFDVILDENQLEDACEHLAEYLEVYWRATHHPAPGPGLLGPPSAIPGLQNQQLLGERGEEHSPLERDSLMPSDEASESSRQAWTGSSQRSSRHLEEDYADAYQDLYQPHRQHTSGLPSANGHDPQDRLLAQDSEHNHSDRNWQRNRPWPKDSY

SMILES | inhibition at 10 µM | inhibition at 30 µM | IC50
COc1ccc(CNC(=O)C2(NC(=O)c3cc(C(C)(C)C)nc(C(C)(C)C)c3)CCCC2)cc1 [Compound 89, 2,6-di-tert-butyl-N-(1-(4-methoxybenzylcarbamoyl)cyclopentyl)isonicotinamide] | 90.8% | 100% | 54.6 nM
CN1CCN(C(=O)C2(NC(=O)c3cc(C(C)(C)C)nc(C(C)(C)C)c3)CCCC2)CC1 [Compound 93, 2,6-di-tert-butyl-N-(1-(4-methylpiperazine-1-carbonyl)cyclopentyl)isonicotinamide] | 83.9% | 85.5% | 856 nM
CC(C)(C)c1cc(C(=O)NC2(C(=O)N3CCCC3)CCCCC2)cc(C(C)(C)C)n1 [Compound 66, 2,6-di-tert-butyl-N-(1-(pyrrolidine-1-carbonyl)cyclohexyl)isonicotinamide] | – | – | 960 nM
CNC(=O)C1(NC(=O)c2cc(C(C)(C)C)nc(C(C)(C)C)c2)CCCCC1 [Compound 101, 2,6-di-tert-butyl-N-(1-(methylcarbamoyl)cyclohexyl)isonicotinamide] | – | – | 105 nM
CC(C)(C)c1cc(C(=O)NC2(C(=O)NCc3ccccc3)CCCCC2)cc(C(C)(C)C)c1O [Compound 65, N-(1-(benzylcarbamoyl)cyclohexyl)-3,5-di-tert-butyl-4-hydroxybenzamide] | 104% | 107% | 123 nM
CN(C)c1ccc(CNC(=O)C2(NC(=O)c3cc(C(C)(C)C)c(O)c(C(C)(C)C)c3)CCCCC2)cc1 [Compound 7, 3,5-di-tert-butyl-N-(1-(4-(dimethylamino)benzylcarbamoyl)cyclohexyl)-4-hydroxybenzamide] | 99.3% | 102% | 128 nM
COc1ccc(CNC(=O)C2(NC(=O)c3cc(C(C)(C)C#N)cc(C(C)(C)C#N)c3)CCOCC2)cc1 [Compound 115, 4-(3,5-bis(2-cyanopropan-2-yl)benzamido)-N-(4-methoxybenzyl)tetrahydro-2H-pyran-4-carboxamide] | 53.5% | 73.4% | –
COc1c(C(C)(C)C)cc(C(=O)NC2(C(=O)N3CCCC3)CCCCC2)cc1C(C)(C)C [Compound 30, 3,5-di-tert-butyl-4-methoxy-N-(1-(pyrrolidine-1-carbonyl)cyclohexyl)benzamide] | 91.7% | 93.4% | 25.2 nM
CC(C)(C)c1cc(C(=O)NC2(C(=O)NCc3nccs3)CC2)cc(C(C)(C)C)n1 [Compound 10, 2,6-di-tert-butyl-N-(1-(thiazol-2-ylmethylcarbamoyl)cyclopropyl)isonicotinamide] | 95.7% | 101% | 184 nM
COc1c(C(C)(C)C)cc(C(=O)NC2(C(=O)Nc3ccccc3)CCCCC2)cc1C(C)(C)C [Compound 96, 3,5-di-tert-butyl-4-methoxy-N-(1-(phenylcarbamoyl)cyclohexyl)benzamide] | 77.7% | 82.6% | 161 nM
CN(C)c1ccc(CNC(=O)C2(NC(=O)c3cc(C(C)(C)C)nc(C(C)(C)C)c3)CCCCC2)cc1 [Compound 77, 2,6-di-tert-butyl-N-(1-(4-(dimethylamino)benzylcarbamoyl)cyclohexyl)isonicotinamide] | 48.7% | 66.9% | 574 nM
CC(C)(C)c1cc(C(=O)NC2(C(=O)N3CCOCC3)CCCCC2)cc(C(C)(C)C)n1 [Compound 98, 2,6-di-tert-butyl-N-(1-(morpholine-4-carbonyl)cyclohexyl)isonicotinamide] | – | – | 248 nM
CC(C)(C)c1cc(C(=O)NC2(C(=O)Nc3ccccc3)CCCCC2)cc(C(C)(C)C)c1O [Compound 111, 3,5-di-tert-butyl-4-hydroxy-N-(1-(phenylcarbamoyl)cyclohexyl)benzamide] | 71.8% | 106% | 551 nM
